Source: patent US20250122504A1, “COMBINATIONS WITH MODULATORS OF PNPLA3 EXPRESSION” (AstraZeneca AB, priority 2021, published 2025)
{GalNAc3} = triantennary N-acetylgalactosamine conjugate

How the values were obtained:
[1] = tested on: Pnpla3^148M/M mice fed a NASH-inducing diet; test: Liver fibrosis as liver collagen 1A1 content (immunohistochemistry); format: in vivo, mouse; settings: 14 weeks treatment, compared to control ASO, FIG. 5
Method: (§1) Male Pnpla3^148M/M mice (6-8 weeks of age) were fed a diet high in fat (40 kcal % fat (non-trans fat Primex Shortening), fructose (20 kcal %) and cholesterol (2%) (NASH diet; D16022301, Research Diets, New Brunswick, NJ) for 22 weeks. The mice were then assigned to study groups based on body weight, and fed the same NASH diet and dosed with either 1) control ASO+saline, 2) Pnpla3 ASO+saline, 3) control ASO+Cotadutide, or 4) Pnpla3 ASO+Cotadutide for 14 weeks. The ASOs were dosed at 5 mg/kg/week administered by two subcutaneous injections per week with saline as vehicle. Cotadutide was dosed at 1 nmol/kg administered by daily subcutaneous injections with saline as vehicle. […] Body weights were recorded during the study. […]
Four μm thick formaldehyde-fixed, paraffin-embedded mouse liver sections (one lover section per mouse) were routinely stained with hematoxylin-eosin (HE). […] Slides were scanned into Panoramic Scan II (3Dhistech, Hungary), and digital images were analyzed using the image analysis program Visiopharm (version 2020.03.0.7300, Visiopharm, Hørsholm, Denmark) by detecting stained area per total section area for Galectin-3 or Collagen 1A1.

[2] = tested on: Pnpla3^148M/M mice fed a NASH-inducing diet; test: NAFLD activity score (NAS) and inflammation score from liver histology; format: in vivo, mouse; settings: 14 weeks treatment, FIG. 4
Method: as §1
The NAFLD activity score (NAS) was determined according to the method reported by Kleiner et al (Kleiner et al Hepatology, 2005, DOI: 10.1002/hep.20701). […]
Differences between treatment groups were examined using 1-way ANOVA followed by Tukey's post-hoc tests (GraphPad Prism v.8.0.1., GraphPad Software, CA). Differences between treatment groups for the NAFLD activity score (NAS) derived from liver histology were analyzed by ordinal regression analyses followed by correction of family-wise error rate using the Šidák method. […]

[3] = Body weight change in Pnpla3^148M/M knock-in mice fed a NASH-inducing diet; format: in vivo, mouse; settings: Pnpla3^148M/M mice, NASH diet 36 weeks, treatment last 14 weeks; ASO 5 mg/kg/week s.c.; Cotadutide 1 nmol/kg daily s.c.; FIG. 1A
Method: All animal experiments were performed with humane care and were approved by the Gothenburg Ethics Committee for Experimental Animals in Sweden. The holding facility has received full accreditation from the Association for Assessment and Accreditation of Laboratory Animal Care (AAALAC). The human PNPLA3 […] mutation was introduced into the mouse Pnpla3 gene by replacing the isoleucine codon with a methionine codon in amino acid position 148 of the mouse Pnpla3 gene using homologous recombination as described before (Lindén et al Mol Metab, 2019, DOI: 10.1016/j.molmet.2019.01.013). Heterozygous Pnpla3^148I/M mice were intercrossed to generate experimental homozygous Pnpla3^148M/M knock-in mice for the pharmacology study. […]
Male Pnpla3^148M/M mice (6-8 weeks of age) were fed a diet high in fat (40 kcal % fat (non-trans fat Primex Shortening), fructose (20 kcal %) and cholesterol (2%) (NASH diet; D16022301, Research Diets, New Brunswick, NJ) for 22 weeks. The mice were then assigned to study groups based on body weight, and fed the same NASH diet and dosed with either 1) control ASO+saline, 2) Pnpla3 ASO+saline, 3) control ASO+Cotadutide, or 4) Pnpla3 ASO+Cotadutide for 14 weeks. […] Body weights were recorded during the study. […]

mouse Pnpla3 mRNA = test: Liver Pnpla3 mRNA by qPCR in Pnpla3^148M/M mice on NASH diet; format: in vivo; settings: 14 weeks treatment, ASO 5 mg/kg/week s.c., FIG. 1B
Method: Male Pnpla3^148M/M mice (6-8 weeks of age) were fed a diet high in fat (40 kcal % fat (non-trans fat Primex Shortening), fructose (20 kcal %) and cholesterol (2%) (NASH diet; D16022301, Research Diets, New Brunswick, NJ) for 22 weeks. The mice were then assigned to study groups based on body weight, and fed the same NASH diet and dosed with either 1) control ASO+saline, 2) Pnpla3 ASO+saline, 3) control ASO+Cotadutide, or 4) Pnpla3 ASO+Cotadutide for 14 weeks. The ASOs were dosed at 5 mg/kg/week administered by two subcutaneous injections per week with saline as vehicle. Cotadutide was dosed at 1 nmol/kg administered by daily subcutaneous injections with saline as vehicle. […] Body weights were recorded during the study. At sacrifice, unfasted mice were euthanized with isoflurane (Forene, Abbot Scandinavia AB, Sweden), blood was collected and plasma isolated, livers were collected, and pieces (same position in the left lateral lobe for all mice) were fixed with 4% formaldehyde in PBS for histology or snap-frozen in liquid N2 and stored at −80° C.
RNA was isolated from snap-frozen liver tissue using the RNeasy Mini Kit (Qiagen, Germany). The cDNA templates were generated by reverse transcription with a cDNA kit (ThermoFisher Scientific, Stockholm, Sweden) and used for real-time quantitative PCR with the QuantStudio 7 Flex instrument (Applied Biosystems, Stockholm, Sweden). […]

Compound	liver fibrosis measured as liver collagen 1A1 content [1]	NAFLD activity score (NAS) compared to control ASO treated animals [2]	body weight-gain during the treatment period compared to control ASO treated animals [3]	reduction of liver Pnpla3 mRNA levels (mouse Pnpla3 mRNA)
CCCCCCCCCCCCCCCC(=O)N[C@@H](CCC(=O)NCCCC[C@H](NC(=O)[C@H](CC(=O)O)NC(=O)[C@H](CO)NC(=O)[C@@H](NC(=O)[C@H](Cc1ccccc1)NC(=O)[C@@H](NC(=O)CNC(=O)[C@H](CCC(N)=O)NC(=O)[C@H](CO)NC(=O)[C@@H](N)Cc1c[nH]cn1)[C@@H](C)O)[C@@H](C)O)C(=O)N[C@@H](CO)C(=O)N[C@@H](CCC(=O)O)C(=O)N[C@@H](Cc1ccc(O)cc1)C(=O)N[C@@H](CC(C)C)C(=O)N[C@@H](CC(=O)O)C(=O)N[C@@H](CO)C(=O)N[C@@H](CCC(=O)O)C(=O)N[C@@H](CCCNC(=N)N)C(=O)N[C@@H](C)C(=O)N[C@@H](CCCNC(=N)N)C(=O)N[C@@H](CC(=O)O)C(=O)N[C@@H](Cc1ccccc1)C(=O)N[C@H](C(=O)N[C@@H](C)C(=O)N[C@@H](Cc1c[nH]c2ccccc12)C(=O)N[C@@H](CC(C)C)C(=O)N[C@@H](CCC(=O)O)C(=O)N[C@@H](C)C(=O)NCC(=O)NCC(=O)O)C(C)C)C(=O)O [Cotadutide]	tended to reduce the liver collagen 1A1 content	reduced the NAS	reduced body weight-gain	–
Pnpla3 ASO: mouse cEt-modified 16-mer ASO targeting mouse Pnpla3 gene (5′-TATTTTTGGTGTATCC-3′, SEQ ID NO: 37), 5′-conjugated with triantennary GalNAc3 (5' {GalNAc3}, sugars by position and backbone not given here; cEt-modified)	tended to reduce liver fibrosis	reduced the NAS	but not Pnpla3 ASO treatment reduced body weight-gain	≥ 97%
